Reference: patent US8871753B2, “Macrocyclic compounds and their use as kinase inhibitors” (Incyte Corporation, priority 2008, dated 2014)
Like-named read-outs stand apart in the source and are kept apart here.

How the values were obtained:
NOD mouse = NOD mouse model of autoimmune type 1 diabetes; cited from earlier work
[1] = cn_pd bond, 13-membered ring, Pd(OAc)2/Xantphos/Cs2CO3/Et3N, 0.5 h
[2] = target: T1, human JAK1 (a.a. 837-1142) (Homo sapiens, UniProt P23458); assay: In vitro JAK kinase assay (HTRF, phosphorylation of a biotinylated peptide), JAK1; type: biochemical; details: read-out: JAK1 IC50
T1 construct: human JAK1 (a.a. 837-1142); His tag (N); made in house; host or cells: insect cells (baculovirus)
T1 sequence (P23458 849-1154): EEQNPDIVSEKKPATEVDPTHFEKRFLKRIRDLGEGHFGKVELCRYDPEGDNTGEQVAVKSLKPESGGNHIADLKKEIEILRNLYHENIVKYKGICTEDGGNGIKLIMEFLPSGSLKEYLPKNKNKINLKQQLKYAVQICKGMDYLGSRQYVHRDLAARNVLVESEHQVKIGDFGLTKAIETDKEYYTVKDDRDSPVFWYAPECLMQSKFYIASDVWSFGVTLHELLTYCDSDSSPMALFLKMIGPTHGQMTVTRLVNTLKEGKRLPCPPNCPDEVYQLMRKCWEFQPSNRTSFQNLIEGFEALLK
How it was run: (§1)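 Kinase activity was measured as phosphorylation of a biotinylated peptide, with ATP at 90 μM for JAK1, 30 μM for JAK2 and 3 μM for JAK3. Reactions ran 1 hr at room temperature, were stopped with EDTA plus SA-APC and Eu-Py20, and were read by HTRF after 40 minutes of antibody binding.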

[3] = target: T2, human JAK2 (a.a. 828-1132) (Homo sapiens, UniProt O60674); assay: In vitro JAK kinase assay (HTRF, phosphorylation of a biotinylated peptide), JAK2; type: biochemical
T2 construct: JAK2 (a.a. 828-1132); His tag (N); made in house; host or cells: insect cells (baculovirus)
T2 sequence (O60674 828-1132): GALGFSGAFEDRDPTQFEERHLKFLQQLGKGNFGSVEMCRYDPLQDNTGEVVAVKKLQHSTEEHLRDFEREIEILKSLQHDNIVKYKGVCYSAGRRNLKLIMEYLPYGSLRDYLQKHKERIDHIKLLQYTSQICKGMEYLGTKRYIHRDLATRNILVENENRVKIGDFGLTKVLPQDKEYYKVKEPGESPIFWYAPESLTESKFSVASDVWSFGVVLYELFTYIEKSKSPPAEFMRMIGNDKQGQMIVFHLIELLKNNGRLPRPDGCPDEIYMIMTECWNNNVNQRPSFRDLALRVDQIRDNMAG
How it was run: as §1

[4] = target: T3, human JAK3 (a.a. 781-1124) (Homo sapiens, UniProt P52333); assay: In vitro JAK kinase assay (HTRF, phosphorylation of a biotinylated peptide), JAK3; type: biochemical
T3 construct: JAK3 (a.a. 781-1124); His tag (N); made in house; host or cells: insect cells (baculovirus)
T3 sequence (P52333 781-1124): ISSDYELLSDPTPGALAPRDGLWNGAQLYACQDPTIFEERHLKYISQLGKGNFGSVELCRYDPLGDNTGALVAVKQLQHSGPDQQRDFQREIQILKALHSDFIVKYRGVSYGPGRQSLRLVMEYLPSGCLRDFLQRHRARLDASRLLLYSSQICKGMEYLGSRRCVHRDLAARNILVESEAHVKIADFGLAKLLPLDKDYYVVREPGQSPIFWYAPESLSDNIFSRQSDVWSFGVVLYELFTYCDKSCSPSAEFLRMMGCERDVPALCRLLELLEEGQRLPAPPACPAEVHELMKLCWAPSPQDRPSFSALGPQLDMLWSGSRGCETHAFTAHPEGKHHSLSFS
How it was run: as §1

TYK2 = TYK2 (Homo sapiens, UniProt P29597); assay: TYK2 kinase inhibition (Table A1); type: biochemical
Chain of TYK2 (P29597 whole entry): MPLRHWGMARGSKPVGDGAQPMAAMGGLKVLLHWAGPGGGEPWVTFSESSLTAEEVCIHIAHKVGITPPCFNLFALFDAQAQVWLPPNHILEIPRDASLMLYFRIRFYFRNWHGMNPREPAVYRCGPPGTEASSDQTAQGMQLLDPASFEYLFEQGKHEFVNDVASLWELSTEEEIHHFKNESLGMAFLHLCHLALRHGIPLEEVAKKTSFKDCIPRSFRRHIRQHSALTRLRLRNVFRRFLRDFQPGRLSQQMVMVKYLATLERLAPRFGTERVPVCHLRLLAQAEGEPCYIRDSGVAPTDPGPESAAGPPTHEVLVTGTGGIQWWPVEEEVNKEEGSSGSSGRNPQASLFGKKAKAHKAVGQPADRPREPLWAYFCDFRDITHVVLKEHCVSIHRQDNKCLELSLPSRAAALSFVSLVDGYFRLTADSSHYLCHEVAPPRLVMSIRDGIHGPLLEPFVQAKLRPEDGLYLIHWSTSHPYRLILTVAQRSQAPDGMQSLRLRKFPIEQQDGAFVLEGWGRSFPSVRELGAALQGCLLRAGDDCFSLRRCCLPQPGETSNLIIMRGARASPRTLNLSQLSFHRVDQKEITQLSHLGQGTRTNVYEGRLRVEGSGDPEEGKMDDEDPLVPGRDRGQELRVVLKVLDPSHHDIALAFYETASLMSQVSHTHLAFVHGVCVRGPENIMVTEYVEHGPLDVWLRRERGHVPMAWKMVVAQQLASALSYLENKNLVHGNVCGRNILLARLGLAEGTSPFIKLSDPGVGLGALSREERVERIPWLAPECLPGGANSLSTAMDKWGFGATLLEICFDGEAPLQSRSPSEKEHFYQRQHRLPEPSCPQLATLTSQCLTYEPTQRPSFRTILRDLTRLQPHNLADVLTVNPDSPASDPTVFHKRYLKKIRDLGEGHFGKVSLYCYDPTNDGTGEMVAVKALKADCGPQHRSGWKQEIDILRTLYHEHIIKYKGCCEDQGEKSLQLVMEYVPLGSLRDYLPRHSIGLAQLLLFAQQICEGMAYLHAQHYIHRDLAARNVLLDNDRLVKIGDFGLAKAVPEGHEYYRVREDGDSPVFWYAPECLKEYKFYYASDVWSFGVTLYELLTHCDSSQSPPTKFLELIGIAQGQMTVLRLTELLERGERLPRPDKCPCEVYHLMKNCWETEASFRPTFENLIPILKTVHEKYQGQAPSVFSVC

[5] = target: T4, Recombinant Human Anaplastic Lymphoma Kinase (Homo sapiens, UniProt Q9UM73); assay: ALK HTRF kinase assay; type: biochemical; details: compound at a concentration of 500 nM or 1 mM
T4 construct: purchased Invitrogen, Carlsbad, Calif
T4 sequence (Q9UM73 19-1620): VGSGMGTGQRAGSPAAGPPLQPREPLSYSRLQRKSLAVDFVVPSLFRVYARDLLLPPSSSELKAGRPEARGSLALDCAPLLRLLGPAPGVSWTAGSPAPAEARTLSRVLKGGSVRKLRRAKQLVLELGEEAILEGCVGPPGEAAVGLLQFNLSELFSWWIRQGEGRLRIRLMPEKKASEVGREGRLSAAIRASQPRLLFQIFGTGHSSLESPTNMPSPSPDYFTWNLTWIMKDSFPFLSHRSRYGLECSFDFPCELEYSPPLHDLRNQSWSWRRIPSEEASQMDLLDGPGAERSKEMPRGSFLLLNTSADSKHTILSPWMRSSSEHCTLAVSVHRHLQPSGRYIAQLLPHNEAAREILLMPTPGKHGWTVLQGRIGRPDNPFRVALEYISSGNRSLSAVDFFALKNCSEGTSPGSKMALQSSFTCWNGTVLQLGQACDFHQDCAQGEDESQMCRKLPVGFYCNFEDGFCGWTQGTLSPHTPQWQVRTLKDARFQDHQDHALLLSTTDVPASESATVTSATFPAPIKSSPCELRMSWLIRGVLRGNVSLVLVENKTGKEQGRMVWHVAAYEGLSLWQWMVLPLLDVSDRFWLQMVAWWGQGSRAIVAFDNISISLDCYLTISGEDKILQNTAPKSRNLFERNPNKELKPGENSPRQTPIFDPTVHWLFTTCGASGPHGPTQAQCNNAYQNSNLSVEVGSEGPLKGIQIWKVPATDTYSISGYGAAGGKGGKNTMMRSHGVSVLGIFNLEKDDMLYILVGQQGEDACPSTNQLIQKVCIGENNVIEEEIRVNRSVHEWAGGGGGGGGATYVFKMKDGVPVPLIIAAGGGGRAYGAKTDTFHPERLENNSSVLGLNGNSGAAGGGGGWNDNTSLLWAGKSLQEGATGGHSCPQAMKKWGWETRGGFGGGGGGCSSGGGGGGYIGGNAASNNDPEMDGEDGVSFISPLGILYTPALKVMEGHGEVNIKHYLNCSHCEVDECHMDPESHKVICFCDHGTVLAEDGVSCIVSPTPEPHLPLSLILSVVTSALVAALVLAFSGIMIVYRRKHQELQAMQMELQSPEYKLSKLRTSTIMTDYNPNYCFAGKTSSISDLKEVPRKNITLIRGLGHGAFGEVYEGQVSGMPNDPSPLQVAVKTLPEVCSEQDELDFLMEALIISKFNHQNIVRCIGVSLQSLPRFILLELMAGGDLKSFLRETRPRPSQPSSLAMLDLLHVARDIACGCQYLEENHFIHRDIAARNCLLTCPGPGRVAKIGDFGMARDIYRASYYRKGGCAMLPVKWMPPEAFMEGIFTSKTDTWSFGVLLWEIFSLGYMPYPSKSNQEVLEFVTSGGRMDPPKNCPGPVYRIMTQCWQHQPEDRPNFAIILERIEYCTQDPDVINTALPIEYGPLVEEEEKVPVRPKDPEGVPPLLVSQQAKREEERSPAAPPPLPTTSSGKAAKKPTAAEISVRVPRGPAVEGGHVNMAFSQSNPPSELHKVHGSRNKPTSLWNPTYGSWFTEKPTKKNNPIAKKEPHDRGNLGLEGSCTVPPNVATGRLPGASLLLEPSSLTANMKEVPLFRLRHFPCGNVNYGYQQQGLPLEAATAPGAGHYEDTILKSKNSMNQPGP
How it was run: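 IC50 was obtained from a logistic fit of signal versus log inhibitor concentration, using pre- and post-transition baselines and a Hill slope. The signal reported tyrosine phosphorylation of a biotinylated peptide by recombinant human kinase, detected as Eu-to-APC energy transfer.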

[6] = from COc1ccc(Nc2nc(Cl)ncc2Cl)cc1CCc1cncc(N)c1; cn_pd bond; 13-membered ring; Pd(OAc)2/Xantphos/Cs2CO3; 1,4-dioxane/DMF 1:1; 77.0 mM; 150.0 °C; 0.33 h
[7] = test system: myeloid dendritic cells (DCs); details: CD40-induced maturation of myeloid DCs; cited from earlier work
[8] = test system: IL-6-dependent MM cell lines; details: cited from earlier work
[9] = patients; cited from earlier work

SMILES | IC50 [2] [nM] | IC50 [3] [nM] | IC50 [4] [nM] | IC50 (TYK2) [nM] | ALK % inhibition at a concentration of 500 nM or 1 mM [5] [%] | also measured
COc1cc2ncnc(Nc3ccc(O)cc3)c2cc1OC [JANEX-1] |  |  |  |  |  | onset of diabetes (NOD mouse): delayed the onset of diabetes
Fc1cnc2nc1Nc1cccc(c1)CCc1ccnc(c1)N2 [Example C16, 6-Fluoro-2,4,8,19,22-pentaazatetracyclo[14.3.1.1(3,7).1(9,13)]docosa-1(20),3(22),4,6,9(21),10,12,16,18-nonaene] | > 1000 | 60 | 350 | 83 | 14 | ring closure, isolated yield ([1]; from Nc1cc(CCc2cccc(Nc3nc(Cl)ncc3F)c2)ccn1, 1,4-dioxane/DMF 1:1, 60.0 mM, 160.0 °C): 30%
Clc1cnc2nc1Nc1cccc(c1)/C=C\c1cc(ccn1)N2 [Example C14, (14Z)-6-Chloro-2,4,8,17,22-pentaazatetracyclo[14.3.1.1(3,7).1(9,13)]docosa-1(20),3(22),4,6,9(21),10,12,14,16,18-decaene] | 10 | 2.8 | 17 | 5.7 | 19 | ring closure, isolated yield ([1]; from Nc1ccnc(/C=C\c2cccc(Nc3nc(Cl)ncc3Cl)c2)c1, 1,4-dioxane, 114.0 mM, 150.0 °C): 35%
Fc1cnc2nc1Nc1cccc(c1)CCc1cc(ccn1)N2 [Example C13, 6-Fluoro-2,4,8,17,22-pentaazatetracyclo[14.3.1.1(3,7).1(9,13)]docosa-1(20),3(22),4,6,9(21),10,12,16,18-nonaene] | 70 | 17 | 154 | 16 | 18 | ring closure, isolated yield ([1]; from Nc1ccnc(CCc2cccc(Nc3nc(Cl)ncc3F)c2)c1, 1,4-dioxane, 120.0 mM, 150.0 °C): 41%
COc1ccc2cc1CCc1cncc(c1)Nc1ncc(Cl)c(n1)N2 |  |  |  |  |  | ring closure, crude yield [6]: 85%
Clc1cnc2nc1Nc1cccc(c1)CCc1cc(ccn1)N2 [Example C12, 6-Chloro-2,4,8,17,22-pentaazatetracyclo[14.3.1.1(3,7).1(9,13)]docosa-1(20),3(22),4,6,9(21),10,12,16,18-nonaene] | 14 | 9.5 | 39 | 13 | 26 | ring closure, isolated yield ([1]; from Nc1ccnc(CCc2cccc(Nc3nc(Cl)ncc3Cl)c2)c1, 1,4-dioxane, 117.0 mM, 150.0 °C): 36%
COc1cc2ncnc(Nc3ccc(O)c(Br)c3)c2cc1OC [WHI-P-154] |  |  |  |  |  | CD40-induced effects (JAK3 activity, costimulatory molecule expression, IL-12 production, allogeneic stimulatory capacity) [7]: prevented these effects
CC(C)(C)c1nc2c3cc[nH]c(=O)c3c3cc(F)ccc3c2[nH]1 [pyridone 6] |  |  |  |  |  | STAT3 phosphorylation [8]: inhibited; tumor cell proliferation and survival [8]: inhibited
C#Cc1cccc(Nc2ncnc3cc(OCCOC)c(OCCOC)cc23)c1 [Tarceva] |  |  |  |  |  | acneiform rash [9]: induced acneiform rash with some patients
Clc1cnc2nc1Nc1cccc(c1)CCc1cccc(n1)N2 [Example C17, 6-Chloro-2,4,8,20,22-pentaazatetracyclo[14.3.1.1(3,7).1(9,13)]docosa-1(20),3(22),4,6,9(21),10,12,16,18-nonaene] | > 1000 | > 1000 | > 1000 | > 1000 | 1 | ring closure, isolated yield ([1]; from Nc1cccc(CCc2cccc(Nc3nc(Cl)ncc3Cl)c2)n1, 1,4-dioxane/DMF 1:1, 75.0 mM, 160.0 °C): 37%
